Measured values reported in EPA's ToxValDB 9.5 (doi:10.2903/j.efsa.2010.1645).
In brackets after ≈: the same amount, converted by molar mass.

Key:
[1] = test system: Typhlodromus pyri; assay: LR50; higher = less toxic; conditions: acute; duration: 7 days; mortality
[2] = test system: Pimephales promelas; conditions: chronic/long-term; duration: 35 days; growth
[3] = test system: Rattus norvegicus
[4] = test system: Daphnia magna; conditions: chronic/long-term; duration: 21 days; reproduction
[5] = test system: Oncorhynchus mykiss; conditions: acute; duration: 96 hours; mortality
[6] = test system: Bibionidae; conditions: chronic/long-term; duration: 28 days; development
[7] = test system: Folsomia candida; conditions: chronic/long-term; duration: 28 days; reproduction
[8] = test system: Apis mellifera; conditions: acute, duration: 48 hours, mortality
[9] = test system: Tagia sp.
[10] = test system: Glycine sp.; conditions: chronic/long-term; seedling emergence

## CC(C)[C@@H](Nc1ccc(C(F)(F)F)cc1Cl)C(=O)OC(C#N)c1cccc(Oc2ccccc2)c1 (stereo not given in full) [tau-Fluvalinate]
[1]
  LR50: 0.049 g/ha
[2]
  NOEC: 6.4e-05 mg/L
[3]; chronic, duration: 2 years, body weight
  NOAEL: 0.5 mg/kg-day
[3]; developmental, development
  NOAEL: 5 mg/kg-day
[3]; short-term, duration: 28 days, clinical signs
  NOAEL: 6 mg/kg-day
[3]; subchronic, duration: 90 days, oral, diet, body weight
  NOAEL: 1 mg/kg-day
[4]
  NOEC: 2.1e-05 mg/L
[5]
  LC50: 7.94 ng/mL (≈ 0.0158 µM)
[6]
  NOEC: 0.00024 mg/L
[7]
  NOEC: 9.6 mg/kg
[8]; dermal
  LD50: 12 µg/piece
[8]; oral, unspecified
  LD50: 12.6 µg/piece
[9]; acute, duration: 14 days, mortality
  LC50: > 1000 mg/kg
[9]; chronic/long-term, duration: 56 days, reproduction
  NOEC: > 2.88 mg/kg
[10]
  NOEC: < 6.25 g/ha
